Where “and” joins values, the source holds several entries; their conditions need not be identical. Equal entries are not always repeated. Entries after “also recorded” stand apart in the source; their conditions may differ.
Key:
peritoneal macrophages = test: Cytotoxicity assay of host cells (MTT); format: cell-based, mouse BALB/c (Mus musculus); settings: 10-200 µg/mL, 48 h
Procedure: (§1) Macrophages were obtained from the peritoneal cavity of male mouse BALB/c (Mus musculus), and the animals were sacrificed in a CO2 chamber (Insight®). The material was harvested with Hank’s solution, concentrated by centrifugation at 4 °C, cultured in a 24-well plate and incubated in an atmosphere containing 5% CO2 at 37 °C for 1 h. After that, non-adherent cells were washed with DMEM and incubated for 24 h with DMEM medium supplemented with 10% FBS. The experimental protocol was approved by the Committee on the Ethics of Animal Experiments (CEPAE, grant number 046-2015) of Universidade Federal do Pará.
(§2) MTT is a tetrazolium salt that is converted into blue formazan crystals that are insoluble in water after cleavage by mitochondrial dehydrogenases, which causes them to accumulate in viable cells. The procedure was performed according to Fotakis and Timbrell (2006), with some modifications. Macrophages treated with 10, 20, 50, 100 and 200 µg/mL of (+)-phyllanthidine for 48 h and untreated cells were incubated with MTT (0.5 mg/mL) dissolved in phosphate-buffered saline (PBS), pH 7.2 for 3 h in a humidified atmosphere containing 5% CO2 at 37 °C. […] The absorbance of each solution was recorded at an optical density (OD) of 570 nm using a spectrophotometer (Bio-Rad Model 450 Microplate Reader). The assay specificity was determined by using non-viable cells treated with 10% formaldehyde in PBS. […]

[1] = Cytotoxicity assay of host cells (MTT); format: cell-based, mouse BALB/c (Mus musculus); settings: male, BALB/c, mouse, peritoneal macrophages
Procedure: as §1, §2

[2] = test system: Leishmania (L.) amazonensis promastigotes; test: Anti-promastigote assay (MTT); format: cell-based
Procedure: Promastigotes from Leishmania (L.) amazonensis (MHOM/BR/26361) were obtained in NNN (Neal, Novy and Nicolle) medium from the Instituto Evandro Chagas and subsequently maintained in RPMI medium supplemented with 10% heat-inactivated fetal bovine serum (FBS) at 25 °C.
Leishmania (L.) amazonensis promastigotes (10^6 parasites/mL) were seeded in 24-well plates with RPMI medium without phenol, the medium was supplemented with 10% FBS, and the cells were then treated with different concentrations of (+)-phyllanthidine (10, 20, 50, 100 and 200 µg/mL). The cultures were incubated at 25 °C for 4 days without medium replacement. Every 24 h, aliquots were harvested and promastigotes were incubated with 20 µL of MTT (2 µg/mL) for 4 h. Then, 20 µL of DMSO was added to the wells, and the plate was allowed to shake for 30 min for complete solubilization. One known anti-leishmanial drug (Amphotericin B—0.5 µg/mL) was used as a positive control.

[3] = test system: Leishmania (L.) amazonensis amastigotes; test: Anti-amastigote assay in infected peritoneal macrophages; format: cell-based; settings: for parasite (amastigote) reduction: infected macrophages, vs untreated cells
Procedure: as §1
Adherent peritoneal macrophages were infected with Leishmania (L.) amazonensis promastigotes (stationary growth phase) at a parasite/macrophage ratio of 10:1 and incubated for 3 h at 37 °C and 5% CO2. After 3 h, free parasites were removed by washing with PBS pH 7.2, and the cultures were treated with 50 and 100 µg/mL (+)-phyllanthidine for 48 h post infection, without replacing the culture medium. The cells were washed with PBS pH 7.2, fixed with methanol and stained with Giemsa. The number of parasites was determined by examining three cover slips for each treatment. At least 100 infected macrophages were counted, and the results were expressed as the survival percentage, in comparison with controls. Amphotericin B (0.5 µg/mL) was used as a positive control. The selectivity index (SI) was calculated as the ratio between the cytotoxicity and antiparasitic activity against intracellular amastigotes.

[4] = test system: Leishmania (L.) amazonensis promastigotes; test: Ultrastructural assay (SEM and TEM); format: cell-based
Procedure: Scanning Electron Microscopy (SEM): Promastigotes were treated with 50 and 100 µg/mL of (+)-phyllanthidine for 4 days, and they were fixed with paraformaldehyde (4%) and glutaraldehyde (2.5%) in cacodylate buffer (0.1 M) for one hour. The cells were post-fixed in osmium tetroxide (1%), dehydrated in graded ethanol, brought to their critical point with CO2, coated with gold and analyzed in a Zeiss LEO 1450VP SEM (Göttingen, Germany).
Transmission Electron Microscopy (TEM): Promastigotes treated with 50 and 100 µg/mL (+)-phyllanthidine for 4 days were fixed with glutaraldehyde (2.5%) and paraformaldehyde (4%) in cacodylate buffer (0.1 M) for one hour. The parasites were post-fixed in an osmium tetroxide solution (1%) and ferrocyanide (0.8%), dehydrated in graded acetone and embedded in epoxy resin. Ultrathin sections were obtained, stained with uranyl acetate/lead citrate and examined with a Zeiss 906E TEM (Göttingen, Germany).

L. major-infected cell = test system: L. major-infected cell; design: method as in PMID 16143535; settings: compared with non-infected conditions; cited from earlier work
[5] = test system: L. (V) braziliensis promastigote forms; design: method as in PMID 19489596; settings: cited from earlier work
[6] = test system: L. (V.) peruviana promastigote forms; design: method as in PMID 19489596; settings: cited from earlier work
L. mexicana = test system: L. mexicana; design: method as in doi:10.1080/13880200600878361; settings: cited from earlier work
Leishmania amazonensis = test system: Leishmania amazonensis; design: method as in PMID 19748254; settings: cited from earlier work
L. braziliensis = test system: L. braziliensis; design: method as in PMID 19748254; settings: cited from earlier work
[7] = test system: Leishmania infected-macrophages; design: method as in PMID 18164321; settings: 250 μM; cited from earlier work
[8] = test system: L. (L.) amazonensis promastigote; settings: 72 h of treatment; cited from earlier work
[9] = test system: L. (L.) amazonensis amastigote form; design: method as in PMID 20661748; settings: 79 μM, 72 h; cited from earlier work

In the case of `O=C1C=C2C=CC3CC2(O1)C1CCCCN1O3` (single isomer, unassigned; (+)) [(+)-phyllanthidine], the “cytotoxic effect on macrophages” value (peritoneal macrophages) is reported as “no cytotoxic effects on macrophages; also recorded: No cytotoxic effect was detected”, the CC50 at 48 h [1] is reported as over 200 µg/mL and the IC50 ([2]; Leishmania, 96 h, 96 h of treatment) is reported as 82.4 µg/mL and 353 µM. The inhibition at 100 µg/mL ([2]; Leishmania, 100 µg/mL, 96 h of treatment, read-out: inhibition of promastigote growth) was 67.7%, the “parasite (amastigote) reduction” value ([3]; 50 μg/mL, 48 h) was 75.5% and the “parasite (amastigote) reduction” value ([3]; 100 μg/mL, 48 h) was 83.96%. The IC50 ([3]; Leishmania, Peritoneal macrophage, 48 h of treatment) was 49.1 µg/mL and 210 µM, the “selectivity index (SI)” value ([3]; ratio between cytotoxicity (macrophages) and activity against intracellular amastigotes) was 25.08 and the “promastigote ultrastructural changes (TEM)” value ([4]; 50 µg/mL, 96 h) was “kinetoplast swelling”. The “promastigote ultrastructural changes (TEM)” value ([4]; 100 µg/mL) was “increase in the number of acidocalcisome-like structures”.
For `C[C@@H]1[C@H](O)[C@@H](C)/C=C/C=C/C=C/C=C/C=C/C=C/C=C/[C@H](O[C@@H]2O[C@H](C)[C@@H](O)[C@H](N)[C@@H]2O)C[C@@H]2O[C@](O)(C[C@@H](O)C[C@@H](O)[C@H](O)CC[C@@H](O)C[C@@H](O)CC(=O)O[C@H]1C)C[C@H](O)[C@H]2C(=O)O` [Amphotericin B, reference compound], the “reduction of promastigotes (positive control)” value ([2]; 0.5 μg/mL (0.54 µM), 96 h) was 100% and the “amastigote reduction (positive control)” value ([3]; 0.5 µg/mL (0.54 µM), 48 h) was 90.42%.
For `O=C(O[C@@H]1O[C@@H]2COC(=O)c3cc(O)c(O)c(O)c3-c3c(cc(O)c(O)c3O)C(=O)O[C@H]([C@H]1O)[C@@H]2O)c1cc(O)c(O)c(O)c1` [Corilagin, corilagin], the “iNOS and cytokine mRNA levels” value (L. major-infected cell) is given as “capable of enhancing the iNOS and cytokine mRNA levels”.
In the case of `O=c1c(O)c(-c2ccc(O)cc2)oc2cc(O)cc(O)c12` [Kaempferol, kaempferol], the leishmanicidal activity [5] is listed as “showed leishmanicidal activity” and the leishmanicidal activity [6] is listed as “showed leishmanicidal activity”.
In the case of `COC(=O)c1cc(O)c(O)c(O)c1` [Methyl galate, methyl gallate], the IC50 (L. mexicana) is listed as 33.6 µM.
For `C=C(C)[C@@H]1CC[C@]2(C(=O)O)CC[C@]3(C)[C@H](CC[C@@H]4[C@@]5(C)CC[C@H](O)C(C)(C)[C@@H]5CC[C@]43C)[C@@H]12` [betulinic acid], the antiprotozoal activity (Leishmania amazonensis) is listed as “No antiprotozoal activity” and the antiprotozoal activity (L. braziliensis) is listed as “No antiprotozoal activity”.
In the case of `O=C(O)c1cc(O)c(O)c(O)c1` [gallic acid], the NO-production [7] is given as “modest NO-production” and the parasite viability [7] is given as “did not reduce parasite viability”.
In the case of `CCC(C)C(=O)NC1CCC(=O)N(CCc2ccccc2)C1=O` (centres unmarked) [julocrotine], the reduction in promastigotes [8] is listed as 54% and the “reduction of amastigote form” value [9] is listed as 80%.
For `CCCCCCCCCCCCCCCCOP(=O)([O-])OCC[N+](C)(C)C` [miltefosine, reference compound], the IC50 (L. mexicana) is given as 0.5 µM.
